Cc1ccc(S(N)(=O)=O)cc1
solubility (mole fraction)
Conditions | 283.15 K | 288.15 K | 293.15 K | 298.15 K | 303.15 K | 308.15 K | 313.15 K | 318.15 K
in acetonitrile | 0.078 | 0.0848 | 0.0955 | 0.106 | 0.118 | 0.13 | 0.143 | 0.159
in ethanol | 0.0344 | 0.0392 | 0.0448 | 0.0524 | 0.0608 | 0.0701 | 0.0801 | 0.0914
in ethyl acetate | 0.0728 | 0.0786 | 0.0859 | 0.0946 | 0.104 | 0.114 | 0.123 | 0.133
in isopropanol | 0.0203 | 0.0232 | 0.0267 | 0.0306 | 0.0347 | 0.0392 | 0.0445 | 0.0509
in methanol | 0.0441 | 0.0505 | 0.0569 | 0.0648 | 0.073 | 0.0827 | 0.0932 | 0.104
in n-butanol | 0.0242 | 0.028 | 0.0316 | 0.0358 | 0.0403 | 0.0452 | 0.0501 | 0.0565
in n-propanol | 0.0272 | 0.0313 | 0.0358 | 0.0415 | 0.047 | 0.0542 | 0.0611 | 0.0689

Cc1ccccc1S(N)(=O)=O
solubility (mole fraction)
Conditions | 283.15 K | 288.15 K | 293.15 K | 298.15 K | 303.15 K | 308.15 K | 313.15 K | 318.15 K
in acetonitrile | 0.0337 | 0.0375 | 0.0423 | 0.0475 | 0.0534 | 0.0597 | 0.0669 | 0.0737
in ethanol | 0.0242 | 0.0266 | 0.0293 | 0.0321 | 0.035 | 0.0384 | 0.042 | 0.0456
in ethyl acetate | 0.0497 | 0.053 | 0.0566 | 0.0604 | 0.0644 | 0.0687 | 0.0729 | 0.0775
in isopropanol | 0.0198 | 0.022 | 0.0246 | 0.0276 | 0.0305 | 0.0337 | 0.0374 | 0.0414
in methanol | 0.0277 | 0.0305 | 0.0341 | 0.0378 | 0.0425 | 0.0473 | 0.0526 | 0.0579
in n-butanol | 0.0209 | 0.0232 | 0.0257 | 0.0286 | 0.0316 | 0.0348 | 0.0382 | 0.0421
in n-propanol | 0.0226 | 0.0249 | 0.0274 | 0.0301 | 0.0331 | 0.0361 | 0.0394 | 0.0427

— BigSolDB 2.1
